Tests used:
Tg.AC mice = test: UV-induced epidermal hyperplasia in mouse skin; type: in vivo
Source text: Animals. Homozygous v-rasHa transgenic mice on an FVB/N background were used in in vivo experiments. To obtain keratinocytes with genetic ablation of Erbb2, loxP sites were inserted flanking exon 2 of Erbb2 such that splicing from exon1 to downstream introns upon Cre recombinase expression creates a frameshift mutation. Mice were maintained in our animal facility and provided with Purina lab chow (Nestle Purina PetCare, St. Louis, Mo.) and water ad libitum. The dorsal skin was clipped one day before treatment using electric clippers (Wahl, Sterling, II) and shaved on the day of treatment with a Remington Microscreen shaver (Madison, N.C.). […] The Ultraviolet-B TL 40W/12 RS bulbs (Philips, Somerset, N.J.) used emitted approximately 30% UVA, 70% UVB and <1% UVC, with a total output of 470 μW/cm^2, as measured with radiometric photodetector probes (Newport, Irvine, Calif.). For tumor experiments, homozygous Tg.AC mice were treated and exposed twice with an interval of 7 d. Tumor number was counted and tumor volume measured weekly using calipers. Skin-fold thickness was measured using calipers (Mitutoyo, Aurora, Ill.) to lightly pinch the dorsal skin. […]
The influence of Erbb2 on epidermal hyperplasia was measured during the first two weeks of the tumor experiment regimen. […]

[1] = molecular target: insulin-like growth factor I receptor kinase (Homo sapiens, UniProt P08069)
Sequence of insulin-like growth factor I receptor kinase (P08069 31-1367): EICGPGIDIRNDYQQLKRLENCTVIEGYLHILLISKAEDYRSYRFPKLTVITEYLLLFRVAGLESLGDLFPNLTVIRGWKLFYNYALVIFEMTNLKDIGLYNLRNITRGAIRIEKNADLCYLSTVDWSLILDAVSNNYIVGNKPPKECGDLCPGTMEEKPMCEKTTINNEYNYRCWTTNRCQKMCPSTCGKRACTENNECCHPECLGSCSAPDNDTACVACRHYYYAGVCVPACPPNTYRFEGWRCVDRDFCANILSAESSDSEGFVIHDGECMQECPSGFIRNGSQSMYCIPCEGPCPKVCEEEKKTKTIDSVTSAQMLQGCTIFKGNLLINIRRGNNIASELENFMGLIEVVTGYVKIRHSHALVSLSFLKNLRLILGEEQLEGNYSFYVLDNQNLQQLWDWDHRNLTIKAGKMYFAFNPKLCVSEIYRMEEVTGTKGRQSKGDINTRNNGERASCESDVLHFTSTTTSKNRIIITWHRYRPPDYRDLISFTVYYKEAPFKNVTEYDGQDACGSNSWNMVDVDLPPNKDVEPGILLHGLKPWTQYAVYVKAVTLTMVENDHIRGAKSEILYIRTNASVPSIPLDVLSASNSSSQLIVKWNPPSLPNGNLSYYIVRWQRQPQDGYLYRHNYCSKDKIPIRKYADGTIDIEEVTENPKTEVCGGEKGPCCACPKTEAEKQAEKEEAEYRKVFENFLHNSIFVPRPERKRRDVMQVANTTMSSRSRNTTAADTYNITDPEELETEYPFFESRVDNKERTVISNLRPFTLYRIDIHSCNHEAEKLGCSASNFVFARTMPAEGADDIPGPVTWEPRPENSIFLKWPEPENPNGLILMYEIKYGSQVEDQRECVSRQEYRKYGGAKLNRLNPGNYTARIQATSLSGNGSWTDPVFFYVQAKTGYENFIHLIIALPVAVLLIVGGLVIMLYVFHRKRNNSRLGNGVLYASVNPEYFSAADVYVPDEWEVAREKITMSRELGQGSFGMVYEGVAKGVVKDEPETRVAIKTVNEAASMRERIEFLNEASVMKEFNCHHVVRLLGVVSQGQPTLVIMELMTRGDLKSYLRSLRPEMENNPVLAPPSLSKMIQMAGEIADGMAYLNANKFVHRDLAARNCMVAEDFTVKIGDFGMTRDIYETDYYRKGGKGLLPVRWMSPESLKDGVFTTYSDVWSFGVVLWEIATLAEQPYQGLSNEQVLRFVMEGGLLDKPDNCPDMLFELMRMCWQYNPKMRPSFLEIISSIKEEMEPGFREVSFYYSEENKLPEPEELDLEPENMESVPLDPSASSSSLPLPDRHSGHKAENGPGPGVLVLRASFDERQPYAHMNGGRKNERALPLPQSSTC

skin = type: in vivo, mouse
Source text: Real-Time PCR. Selected changes in gene expression were validated using real-time PCR. Sequences supplied by Affymetrix from the probe set of Il1 b (probe: 1449399_a_at), Mmp9 (probe: 1416298_at) and Thbs1 (probe: 1421811_at) were scanned for unique sequences using a stringent blast search (www.ncbi.nlm.nih.gov/BLAST). Sequences spanning exons were selected preferentially for probes and primers for prepared using Assays-by-Design (Applied Biosystems, Foster City, Calif.). Real-time PCR was performed using TaqMan One-Step RT-PCR Master Mix Reagents (Applied Biosystems, Foster City, Calif.) according to the manufacturer's instructions on an ABI Prism 7000 (Applied Biosystems, Foster City, Calif.). The relative efficiency of amplification of the selected gene versus control (GAPDH or actin) was plotted to ensure the slope of total RNA versus ΔCT was less than 0.05. The 2^−ΔΔC^T was used to determine fold-change differences between samples^25.

Cdc25a = Cdc25a immunoblotting in keratinocytes; type: cell-based, mouse; conditions: vs appropriate controls
Protocol: Immunoblotting. Flash frozen skin was ground with a mortar and pestle on dry ice, homogenized in lysis buffer containing 10 mM Tris (pH 7.4), 150 mM NaCl, 10% glycerol, 1% Triton X-100, 1 mM EDTA, Complete Protease Inhibitor Cocktail (Roche, Germany), 1 mM Na3V O4, 1.5 μM EGTA, and 10 μM NaF. Protein was quantified using the Coomassie Brilliant Blue G-250 protein assay (Bio-Rad, Hercules, Calif.). The evenness of loading and transfer was determined by staining with Ponceau S and by actin immunoblotting. […]
Cell culture. […] Transfection efficiency was quantified by determining the proportion of the cells that incorporated the fluorescent Cy3-conjugated siRNA or GFP one day post-transfection. […]
In order to understand how Erbb2 regulates S-phase progression following UV irradiation, signaling pathways known to regulate progression into and through S-phase were examined. […] The effect of abrogation of Erbb2 on Cdc25a occurred post-transcriptionally, since no decrease in Cdc25a mRNA was detected in our microarray analysis using the Erbb2 inhibitor (32). […]

COc1cc(/C=C(\C#N)C(N)=O)cc(CSc2nc3ccccc3s2)c1O [AG825]
effect on epidermal hyperplasia (Tg.AC mice; first week after UV irradiation): minimal | epidermal hyperplasia (Tg.AC mice; following the second UV irradiation): significantly suppressed | fold higher IC50 for insulin-like growth factor I receptor kinase than for Erbb2 [1]: more than 100 fold | fold increase in Mmp9 expression (skin; 24 h after UV exposure, qPCR): 1.3 fold | Thbs1 expression vs vehicle-treated mice (skin; 24 h post-UV, real-time PCR): similar | Il1 b expression: fold greater increase after UV in vehicle-treated compared to AG825-treated samples (skin; real-time PCR): 6 fold | fold higher Thbs1 expression compared to corresponding control (skin; sham-irradiated skin, real-time PCR): 2 fold | Cdc25a immunoreactivity (Cdc25a): decreased

From patent US20080119530A1, “Method for treatment and prevention of ultraviolet light induced skin pathologies” (priority 2006, published 2008)
